# Experimental data: patent US5157041A, “Amino acid derivatives” (Hoffmann-La Roche Inc., priority 1988, dated 1992)
# Target: T1, HIV protease (Human immunodeficiency virus type 1 group M subtype B, UniProt P04585)
# T1 construct: HIV protease was expressed in E. coli; made in house; host or cells: E. coli
# Assay: biochemical
# Conditions: partially purified HIV protease expressed in E. coli; substrate succinyl-Ser-Leu-Asn-Tyr-Pro-Ile isobutylamide; citrate buffer pH 5.5; 37° C.; read-out: I50 (concentration of test compound required to give 50% inhibition)
# Experimental: HIV protease was expressed in E. coli and partially purified from soluble extracts of the bacterium by ammonium sulphate fractionation (0-30%). Protease activity was assayed using the protected hexapeptide succinyl-Ser-Leu-Asn-Tyr-Pro-Ile isobutylamide as the substrate. Cleavage of the substrate was quantified by measuring the production of H-Pro-Ile isobutylamide by the spectrophotometric assay of N-terminal proline.
# 1.25 mM of substrate were dissolved in 125 mM of citrate buffer (pH 5.5) containing 0.125 mg/ml of Tween 20. 10 μl of a solution of various concentrations of the test compound (dissolved in methanol or […]) and 10 μl of protease were added to 80 μl of the above buffered substrate. Digestion was carried out at 37° C. for a fixed period of time and was terminated by the addition of 1 ml of colour reagent [30 μg/ml of isatin and 1.5 mg/ml of 2-(4-chlorobenzoyl)benzoicacid in 10% acetone in ethanol (vol./vol.)]. The solution was heated in a water bath and then the pigmented residues were re-dissolved in 1 ml of 1% pyrogallol in 33% water in acetone (wt./vol./vol.). The optical density of the solution was measured spectrophotometrically at 599 nm.
row,SMILES,IC50 [nM]
1,"CC(C)(C)OC(=O)[C@@H]1CCCN1CC(=O)[C@H](Cc1ccccc1)NC(=O)[C@H](CC(N)=O)NC(=O)OCc1ccccc1 [Compound A, N-[N-[[N-(benzyloxycarbonyl)-L-asparaginyl]-L-phenylalanyl]methyl]-L-proline tert.butyl ester]",870
2,"CC[C@H](C)[C@H](NC(=O)[C@@H]1CCCN1CC(O)[C@H](Cc1ccccc1)NC(=O)[C@H](CC(N)=O)NC(=O)[C@H](CC(C)C)NC(=O)OCc1ccccc1)C(=O)NCC(C)C (mixture of isomers) [Compound E, N^2-[N-[3(S)-[[N-[N-(benzyloxycarbonyl)-L-leucyl]-L-asparaginyl]amino]-2(R and S)-hydroxy-4-phenylbutyl]-L-prolyl]-N^1-isobutyl-L-isoleucinamide]",750
3,"CC(C)CCNC(=O)[C@@H]1CCCN1CC(O)[C@H](Cc1ccccc1)NC(=O)[C@H](CC(N)=O)NC(=O)OCc1ccccc1 (single isomer, unassigned) [Compound F]",750

# The remaining lines, values ahead:
row,IC50 [nM],SMILES
1,10,"CC(C)(C)OC(=O)[C@@H]1CCCN1C[C@@H](O)[C@H](Cc1ccccc1)NC(=O)[C@H](CC(N)=O)NC(=O)c1ccc2ccccc2c1 [Compound H, N-[2(R)-hydroxy-3(S)-[[N-(2-naphthoyl)-L-asparaginyl]amino]-4-phenylbutyl]-L-proline tert.butyl ester]"
2,85,"CC(C)(C)NC(=O)C1Cc2ccccc2CN1C[C@@H](O)[C@H](Cc1ccccc1)NC(=O)[C@H](CC(N)=O)NC(=O)OCc1ccccc1 (mixture of isomers) [Compound I, 2-[3(S)-[[N-(benzyloxycarbonyl)-L-asparaginyl]amino]-2(R)-hydroxy-4-phenylbutyl]-N-tert.butyl-1,2,3,4-tetrahydro-3(R,S)-isoquinolinecarboxamide]"
3,80,"CC(C)CNC(=O)[C@@H]1CCCN1CC(O)[C@H](Cc1ccccc1)NC(=O)[C@H](CC(N)=O)NC(=O)OCc1ccccc1 (single isomer, unassigned) [Compound G, N^2-[3(S)-[[N-(benzyloxycarbonyl)-L-asparaginyl]amino]-2(R or S)-hydroxy-4-phenylbutyl]-N^1-isobutyl-L-prolinamide]"
4,130,"CC[C@H](C)[C@H](NC(=O)[C@@H]1CCCN1CC(O)[C@H](Cc1ccccc1)NC(=O)[C@H](CC(N)=O)NC(=O)OCc1ccccc1)C(=O)NCC(C)C (single isomer, unassigned) [Compound D]"

# Same assay, conditions: read-out: I50 (concentration of test compound required to give 50% inhibition)
row,SMILES,IC50 [nM]
1,"CC(C)(C)OC(=O)[C@@H]1CCCN1C[C@@H](O)[C@H](Cc1ccccc1)NC(=O)[C@H](CC(N)=O)NC(=O)OCc1ccccc1 [Compound B, N-[3(S)-[[N-(benzyloxycarbonyl)-L-asparaginyl]amino]-2(R)-hydroxy-4-phenylbutyl]-L-proline tert.butyl ester]",150
2,"CC(C)(C)OC(=O)[C@@H]1CCCN1C[C@H](O)[C@H](Cc1ccccc1)NC(=O)[C@H](CC(N)=O)NC(=O)OCc1ccccc1 [Compound C, N-[3(S)-[[N-(benzyloxycarbonyl)-L-asparaginyl]amino]-2(S)-hydroxy-4-phenylbutyl]-L-proline tert.butyl ester]",300
